From paper PMC9613470, “Diverse MarR bacterial regulators of auxin catabolism in the plant microbiome” (Nature Microbiology, 2022)

Target: T1, Enterobacter soli LF7 MarR_Es (Enterobacter soli, UniProt A0AAW8H3I9, A146S)
T1 sequence (A0AAW8H3I9 1-157 A146S): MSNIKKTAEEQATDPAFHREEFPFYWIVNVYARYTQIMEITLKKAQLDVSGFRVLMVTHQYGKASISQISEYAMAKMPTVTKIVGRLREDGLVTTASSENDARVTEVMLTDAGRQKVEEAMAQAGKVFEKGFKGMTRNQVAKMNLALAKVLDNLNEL
Experiment: ITC IAA binding to MarR_Es
Details: 25 °C, IacR, read-out: KD1
Method: All ITC measurements were performed at 25 °C using an Auto-ITC200 microcalorimeter (MicroCal/GE Healthcare). The buffer employed was 20 mM HEPES, pH 7.4, 50 mM NaCl and 0.5% dimethly sulfoxide (DMSO) for protein/ligand binding and 20 mM HEPES, pH 7.4 and 300 mM NaCl for DNA/protein binding experiments. For ligand binding experiments, the calorimetry cell (volume 200 ml) was loaded with MarR wild-type, mutant or homologue protein at a concentration of 50 μM. The syringe was loaded with a ligand concentration of 0.5 or 2 mM. […] A typical injection protocol included a single 0.2 μl first injection followed by 20 1.5 μl injections of the syringe sample into the calorimetry cell. The spacing between injections was kept at 180 s and the reference power at 8 μcal s^−1. The data were analysed using Origin for ITC version 7.0 software supplied by the manufacturer and fit well to a one-site binding model. Two independent ITC measurements were performed for each condition.

## O=C(O)Cc1c[nH]c2ccccc12 [IAA, indole-3-acetic acid]
  Kd: 2910 ± 96 nM
